27 compounds from patent publication US10301267B2, “Compounds” (AstraZeneca AB, priority 2006, dated 2019) can be followed below.

For orientation: IC50 means the concentration at which inhibition is half-maximal. Lower therefore signals greater potency in that assay.

Each structure is given as a SMILES string.

FGFR1 active kinase, sequence (P11362 22-822): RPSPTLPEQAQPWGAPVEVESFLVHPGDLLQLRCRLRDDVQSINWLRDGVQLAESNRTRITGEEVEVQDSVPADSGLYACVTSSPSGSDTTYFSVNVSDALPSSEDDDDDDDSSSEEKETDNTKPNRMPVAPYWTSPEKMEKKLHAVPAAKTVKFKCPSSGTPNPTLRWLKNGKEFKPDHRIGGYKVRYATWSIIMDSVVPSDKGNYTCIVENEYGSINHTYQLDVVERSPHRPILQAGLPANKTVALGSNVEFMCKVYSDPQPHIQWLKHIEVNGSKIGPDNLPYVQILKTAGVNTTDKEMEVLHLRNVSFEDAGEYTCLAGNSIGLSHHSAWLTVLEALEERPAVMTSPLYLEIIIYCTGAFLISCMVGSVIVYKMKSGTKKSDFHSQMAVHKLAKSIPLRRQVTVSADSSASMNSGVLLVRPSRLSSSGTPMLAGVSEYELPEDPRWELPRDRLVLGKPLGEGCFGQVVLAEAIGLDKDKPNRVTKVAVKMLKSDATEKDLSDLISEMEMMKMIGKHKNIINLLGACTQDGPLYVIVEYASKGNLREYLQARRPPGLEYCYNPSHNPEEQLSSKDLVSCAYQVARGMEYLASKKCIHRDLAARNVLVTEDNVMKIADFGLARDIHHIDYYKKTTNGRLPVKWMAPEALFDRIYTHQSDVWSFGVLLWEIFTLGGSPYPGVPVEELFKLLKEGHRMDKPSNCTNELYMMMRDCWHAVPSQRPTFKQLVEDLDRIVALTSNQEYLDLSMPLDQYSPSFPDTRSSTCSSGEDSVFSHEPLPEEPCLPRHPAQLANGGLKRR

This assay addresses FGFR1 active kinase (Homo sapiens, UniProt P11362). Kind of assay: FGFR Kinase assay - Caliper Echo Dosing. In kind it is biochemical. The note with it: FGFR1 7.2 nM, 408 uM ATP, acoustic dosing; geometric mean of n. As to the method: FGFR Kinase Assay—Caliper Echo Dosing
To determine inhibition of FGFR activity, kinase assays were conducted using Caliper technology.
Kinase activity assays were performed in Greiner 384-well low volume plates, with a total reaction volume of 12 ul per well. Final concentration of FGFR1 active kinase in each reaction well was 7.2 nM. The substrate for each assay was a custom peptide with fluorescent tag (13 amino acids in length, […] with the fluorescene tag on the first K).
Compounds were dispensed directly in to assay plates using a Labcyte Echo 550 acoustic droplet ejection unit. Each well received 120 nl of DMSO containing compound such that the final concentration of compound in the assay prior to the addition of the stop solution ranged between 30 uM and 30 pM. In addition to compounds each plate carried maximum and minimum control wells, the max wells contained 120 nl of DMSO and the min wells contained 120 nl of 10 mM staurosporine (LC Laboratories, MA 01801, USA Catalogue No. S-9300). The Enzyme (at 7.2 nM [final]) and Substrate (at 3.6 uM [final]) were added separately to the compound plates, in reaction buffer [comprising: 50 mM MOPS (Sigma, Catalogue No. M1254)—pH 6.5, 0.004% Triton (Sigma, Catalogue No. X-100), 2.4 mM DTT, 12 mM MgCl2, 408 uM ATP] resulting in a final DMSO concentration in the reaction mix of 1%.
Assay plates were incubated at room temperature for 1.5 h, before the reaction was stopped with the addition of buffer [comprising: 100 mM HEPES—pH7.5, 0.033% Brij-35 (Sigma Catalogue No. B4184), 0.22% Caliper Coating Reagent #3 (Caliper Life Sciences Catalogue No. 760050), 88 mM EDTA, 5% DMSO]. Stopped assay plates were then read using the Caliper LabChip® LC3000 (which uses microfludics to measure a shift in mobility between fluorescent labelled peptide and the FGFR1 kinase—phosphorylated form of this peptide).
In the assay, compounds were tested at a range of concentrations. […] Percentage inhibition at 1 uM, as expressed herein, is a calculated value based on the curve fit that was generated experimentally. From the fitted curve plot, the effect of compound at a concentration of 1 uM was calculated as a percentage inhibition. The IC50 is the concentration of compound, which inhibits FGFR1 kinase activity by 50% in the context of this assay. This value is calculated using a standard curve fitting software package Origin™.
Compound `COc1cc(CCc2cc(NC(=O)c3cnc(N4CCN(C)C(=O)C4)nc3)[nH]n2)cc(OC)c1` [Example 150, N-[5-[2-(3,5-dimethoxyphenyl)ethyl]-2H-pyrazol-3-yl]-2-(4-methyl-3-oxopiperazin-1-yl)pyrimidine-5-carboxamide] returned an IC50 of 12 nM. In the case of `COc1cc(CCc2cc(NC(=O)c3cnc(N4C[C@@H](C)N(C)[C@@H](C)C4)cn3)[nH]n2)cc(OC)c1` [Example 125, N-[5-[2-(3,5-dimethoxyphenyl)ethyl]-2H-pyrazol-3-yl]-5-[(3R,5S)-3,4,5-trimethylpiperazin-1-yl]pyrazine-2-carboxamide] it was 1.7 nM; in that of `COc1cc(CCc2cc(NC(=O)c3cnc(N4C[C@@H](C)N[C@@H](C)C4)cn3)[nH]n2)cc(OC)c1` [Example 112, N-[5-[2-(3,5-dimethoxyphenyl)ethyl]-2H-pyrazol-3-yl]-5-[(3R,5S)-3,5-dimethylpiperazin-1-yl]pyrazine-2-carboxamide], 1.7 nM. For the compound `COc1cc(COc2cc(NC(=O)c3cnc(N4C[C@@H](C)N(C)[C@@H](C)C4)nc3)[nH]n2)cc(OC)c1` [Example 138, N-(3-(3,5-dimethoxybenzyloxy)-1H-pyrazol-5-yl)-2-((3R,5S)-3,4,5-trimethylpiperazin-1-yl)pyrimidine-5-carboxamide], the concentration for half-maximal inhibition (IC50) was 2.6 nM. Compared with the last compound, the IC50 is about 1.5-fold higher. In the case of `COc1cc(COc2cc(NC(=O)c3cnc(N4C[C@@H](C)N(C)[C@@H](C)C4)cn3)[nH]n2)cc(OC)c1` [Example 130, N-[5-[(3,5-dimethoxyphenyl)methoxy]-2H-pyrazol-3-yl]-5-[(3R,5S)-3,4,5-trimethylpiperazin-1-yl]pyrazine-2-carboxamide] it was 0.59 nM; in that of `COc1cc(CCc2cc(NC(=O)c3cnc(N4CCCN(C(C)C)CC4)cn3)[nH]n2)cc(OC)c1` [Example 167, N-[5-[2-(3,5-dimethoxyphenyl)ethyl]-2H-pyrazol-3-yl]-5-(4-propan-2-yl-1,4-diazepan-1-yl)pyrazine-2-carboxamide], 0.63 nM; in that of `COc1cc(CCc2cc(NC(=O)c3cnc(N4CCCN(C)CC4)cn3)[nH]n2)cc(OC)c1` [Example 163, N-[5-[2-(3,5-dimethoxyphenyl)ethyl]-2H-pyrazol-3-yl]-5-(4-methyl-1,4-diazepan-1-yl)pyrazine-2-carboxamide], 1.8 nM.

`COc1cc(COc2cc(NC(=O)c3cnc(N4CCN(C5CC5)CC4)cn3)[nH]n2)cc(OC)c1` [Example 109, 5-(4-Cyclopropylpiperazin-1-yl)-N-[5-[(3,5-dimethoxyphenyl)methoxy]-2H-pyrazol-3-yl]pyrazine-2-carboxamide] returned a half-inhibitory concentration (IC50) of 3 nM. In the case of `COc1cc(CCc2cc(NC(=O)c3cnc(N4CCN[C@@H](C(C)C)C4)nc3)[nH]n2)cc(OC)c1` [Example 149, N-[5-[2-(3,5-dimethoxyphenyl)ethyl]-2H-pyrazol-3-yl]-2-[(3S)-3-propan-2-ylpiperazin-1-yl]pyrimidine-5-carboxamide] it was 4.4 nM.

In turn, `COc1cc(CCc2cc(NC(=O)c3ccc(C4CCN(C5CC5)CC4)cc3)[nH]n2)cc(OC)c1` [Example 99, 4-(1-Cyclopropylpiperidin-4-yl)-N-[5-[2-(3,5-dimethoxyphenyl)ethyl]-2H-pyrazol-3-yl]benzamide] displayed a half-maximal inhibitory concentration (IC50) of 0.91 nM.

Turning to `COc1cc(CCc2cc(NC(=O)c3cnc(N4CCN(C)C(C)C4)nc3)[nH]n2)cc(OC)c1` (stereo not drawn) [Example 135, N-[5-[2-(3,5-dimethoxyphenyl)ethyl]-2H-pyrazol-3-yl]-2-(3,4-dimethylpiperazin-1-yl)pyrimidine-5-carboxamide], inhibition was half-maximal at 2.6 nM (IC50). In the case of `C=CCN1CCC(c2ccc(C(=O)Nc3cc(CCc4cc(OC)cc(OC)c4)n[nH]3)cc2)CC1` [Example 144, N-[5-[2-(3,5-dimethoxyphenyl)ethyl]-2H-pyrazol-3-yl]-4-(1-prop-2-enylpiperidin-4-yl)benzamide] it was 0.041 nM; in that of `COc1cc(COc2cc(NC(=O)c3cnc(N4CCN5CCCC5C4)nc3)[nH]n2)cc(OC)c1` (stereo not drawn) [Example 134, 2-(3,4,6,7,8,8a-hexahydro-1H-pyrrolo[2,1-c]pyrazin-2-yl)-N-[5-[(3,5-dimethoxyphenyl)methoxy]-2H-pyrazol-3-yl]pyrimidine-5-carboxamide], 2.4 nM. In the case of `CCN1CCN(c2ccc(C(=O)Nc3cc(CCc4cc(OC)cc(OC)c4)n[nH]3)cc2)CC1` [Example 180, N-[5-[2-(3,5-dimethoxyphenyl)ethyl]-2H-pyrazol-3-yl]-4-(4-ethylpiperazin-1-yl)benzamide] it was 1.7 nM; in that of `COc1cc(COc2cc(NC(=O)c3ccc(N4CCN(C)C(C)C4)s3)[nH]n2)cc(OC)c1` (stereo not drawn) [Example 97, N-[5-[(3,5-dimethoxyphenyl)methoxy]-2H-pyrazol-3-yl]-5-(3,4-dimethylpiperazin-1-yl)thiophene-2-carboxamide], 0.46 nM; in that of `COc1cc(COc2cc(NC(=O)c3cnc(N4CCN5CCCC5C4)cn3)[nH]n2)cc(OC)c1` (stereo not drawn) [Example 122, 5-(3,4,6,7,8,8a-Hexahydro-1H-pyrrolo[2,1-c]pyrazin-2-yl)-N-[5-[(3,5-dimethoxyphenyl)methoxy]-2H-pyrazol-3-yl]pyrazine-2-carboxamide], 1.3 nM. The same measure for `COc1cc(COc2cc(NC(=O)c3ccc(N4CCNC(C)(C)C4)s3)[nH]n2)cc(OC)c1` [Example 140, N-[5-[(3,5-dimethoxyphenyl)methoxy]-2H-pyrazol-3-yl]-5-(3,3-dimethylpiperazin-1-yl)thiophene-2-carboxamide]: 0.98 nM. `COc1cc(CCc2cc(NC(=O)c3ccc(N4CCNC(C)(C)C4)cc3)[nH]n2)cc(OC)c1` [Example 139, N-[5-[2-(3,5-dimethoxyphenyl)ethyl]-2H-pyrazol-3-yl]-4-(3,3-dimethylpiperazin-1-yl)benzamide]: the IC50 was determined as 0.47 nM. The same measure for `COc1cc(CCc2cc(NC(=O)c3cnc(C4CCN(C)CC4)cn3)[nH]n2)cc(OC)c1` [Example 152, N-[5-[2-(3,5-dimethoxyphenyl)ethyl]-2H-pyrazol-3-yl]-5-(1-methylpiperidin-4-yl)pyrazine-2-carboxamide]: 1.3 nM; for `COc1cc(CCc2cc(NC(=O)c3cnc(N4CCN(C)C(C)C4)cn3)[nH]n2)cc(OC)c1` (stereo not drawn) [Example 123, N-[5-[2-(3,5-Dimethoxyphenyl)ethyl]-2H-pyrazol-3-yl]-5-(3,4-dimethylpiperazin-1-yl)pyrazine-2-carboxamide]: 2.2 nM; for `COc1cc(COc2cc(NC(=O)c3ccc(N4CC5CCCNC5C4)cc3)[nH]n2)cc(OC)c1` (stereo not drawn) [Example 151, 4-(1,2,3,4,4a,5,7,7a-octahydropyrrolo[3,4-b]pyridin-6-yl)-N-[5-[(3,5-dimethoxyphenyl)methoxy]-2H-pyrazol-3-yl]benzamide]: 1.3 nM. In the case of `COc1cc(CCc2cc(NC(=O)c3ccc(CN(C)CC4CCCO4)cc3)n[nH]2)cc(OC)c1` (stereo not drawn) [Example 57, N-[5-[2-(3,5-Dimethoxyphenyl)ethyl]-1H-pyrazol-3-yl]-4-[(methyl-(oxolan-2-ylmethyl)amino)methyl]benzamide] it was 5.3 nM; in that of `COc1cc(CCc2cc(NC(=O)c3cnc(N4CCN5CCCC5C4)nc3)[nH]n2)cc(OC)c1` (stereo not drawn) [Example 128, 2-(3,4,6,7,8,8a-hexahydro-1H-pyrrolo[2,1-c]pyrazin-2-yl)-N-[5-[2-(3,5-dimethoxyphenyl)ethyl]-2H-pyrazol-3-yl]pyrimidine-5-carboxamide], 3 nM.

In turn, `COc1cc(COc2cc(NC(=O)c3cnc(N4C[C@@H](C)N(CC#N)[C@@H](C)C4)cn3)[nH]n2)cc(OC)c1` [Example 131, 5-[(3R,5S)-4-(cyanomethyl)-3,5-dimethylpiperazin-1-yl]-N-[5-[(3,5-dimethoxyphenyl)methoxy]-2H-pyrazol-3-yl]pyrazine-2-carboxamide] displayed an IC50 of 3.5 nM. For `COc1cc(COc2cc(NC(=O)c3ccc(C4CCN(C)CC4)cc3)[nH]n2)cc(OC)c1` [Example 103, N-[5-[(3,5-dimethoxyphenyl)methoxy]-2H-pyrazol-3-yl]-4-(1-methylpiperidin-4-yl)benzamide], it took 0.94 nM to reach half-maximal inhibition (IC50).

`COc1cc(CCc2cc(NC(=O)c3cnc(N4CCNC(C)(C)C4)cn3)[nH]n2)cc(OC)c1` [Example 108, N-[5-[2-(3,5-dimethoxyphenyl)ethyl]-2H-pyrazol-3-yl]-5-(3,3-dimethylpiperazin-1-yl)pyrazine-2-carboxamide] yielded a concentration for half-maximal inhibition (IC50) of 2 nM. In the case of `COc1cc(CCc2cc(NC(=O)c3ccc(N4CCN(C(C)CO)CC4)cc3)[nH]n2)cc(OC)c1` (stereo not drawn) [Example 137, N-[5-[2-(3,5-dimethoxyphenyl)ethyl]-2H-pyrazol-3-yl]-4-[4-(1-hydroxypropan-2-yl)piperazin-1-yl]benzamide] it was 0.57 nM.
